Results reported in patent publication US20060068012A1, “Process for preparing poly (vinyl alcohol) drug delivery devices with humidity control” (Bausch & Lomb Incorporated, priority 2004, published 2006).

Assay: thermal stability of the medicament at poly(vinyl alcohol) curing temperature
Format: physicochemical
Settings: heating during curing of poly(vinyl alcohol)
Description: Optionally, the temperature proximate the first drug delivery device and the temperature proximate the second drug delivery device is a minimum of about 120° C. and a maximum of about 210° C. In an embodiment, the temperature proximate the first drug delivery device and the temperature proximate the second drug delivery device is a minimum of about 125° C., about 130° C., about 135° C. or about 140° C. and/or a maximum of about 210° C., about 200° C., about 180° C., about 170° C., about 150° C. or about 140° C. The desired temperature for curing the poly(vinyl alcohol) is dependent upon several factors. If a temperature is selected below about 120° C., the poly(vinyl alcohol) will not cure effectively. If the temperature is above about 210° C., decomposition of the poly(vinyl alcohol) will occur. If the poly(vinyl alcohol) is cured in the presence of the medicament, the stability of the medicament must be considered. For example, flucinolone acetonide begins to decompose above a temperature of about 165° C. Thus, it is desired that a temperature for curing poly(vinyl alcohol) in the presence of flucinolone acetonide be in the range of about 120° C. to about 150° C. and preferably about 135° C.

CC1(C)O[C@@H]2C[C@H]3[C@@H]4C[C@H](F)C5=CC(=O)C=C[C@]5(C)[C@@]4(F)[C@@H](O)C[C@]3(C)[C@]2(C(=O)CO)O1 [flucinolone acetonide]
temperature above which the medicament begins to decompose: > 165 °C
